# In the supplement of paper PMC4862054:
# System: MDA-MB-231
# Test: not given
# Settings: 72 h
# In short: (§1)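 The reported EC50 was fitted from percent-inhibition dose-response curves and censored at the highest concentration. Breast cancer cell lines (20 µl suspension) were added to 384-well plates containing compound in 5 µl medium and incubated 72 h, and viability was read with 2.5 µl CellTiter-Blue over 2 h at 37 °C at 560/590 nm. Each plate was normalised to vehicle and a positive kill control and checked by Z'-factor, and rows with zero drug sensitivity score were dropped.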
row,"EC50, CellTiter-Blue viability [µM]",Structure (SMILES)
1,8.35,CCc1c2c(nc3ccc(OC(=O)N4CCC(N5CCCCC5)CC4)cc13)-c1cc3c(c(=O)n1C2)COC(=O)[C@]3(O)CC [Irinotecan]
2,2.37,CNC(=O)c1cc(Oc2ccc(NC(=O)Nc3ccc(Cl)c(C(F)(F)F)c3)c(F)c2)ccn1 [Regorafenib]
3,12,S=P(N1CC1)(N1CC1)N1CC1 [Thio-TEPA]
4,0.0924,CC(C)C[C@@H](C(=O)N[C@H](C(=O)OC1CCCC1)c1ccccc1)[C@H](O)C(=O)NO [Tosedostat]
5,2.48,COc1cc2/c(=N/c3ccc(Br)cc3F)nc[nH]c2cc1OCC1CCN(C)CC1 [Vandetanib]

row,Structure (SMILES),"EC50, CellTiter-Blue viability [µM]"
1,O=C(Nc1ccncc1)C(=O)c1cn(Cc2ccc(Cl)cc2)c2ccccc12 [Indibulin],0.0872

# System: MDA-MB-436
# Test: not given
# Settings: 72 h
# In short: as §1
row,Structure (SMILES),"EC50, CellTiter-Blue viability [µM]"
1,O=P1(N(CCCl)CCCl)NCCCO1 (stereo unspecified) [Cyclophosphamide],> 40
2,O=C(Nc1ccncc1)C(=O)c1cn(Cc2ccc(Cl)cc2)c2ccccc12 [Indibulin],0.0645

# Now from value to compound:
row,"EC50, CellTiter-Blue viability [µM]",Structure (SMILES)
1,1.08,Cc1cc(Nc2cc(CN3CCOCC3)c3nc(C)c(Cc4ccc(Cl)cc4F)n3n2)n[nH]1
2,1.39,N#Cc1ccc(COC[C@H]2O[C@@H](n3c(NCc4ccc(Cl)c(Cl)c4)nc4c(N)ncnc43)[C@H](O)[C@@H]2O)cc1
3,9.11,COC(=O)c1ccc2c(c1)NC(=O)/C2=C(\Nc1ccc(N(C)C(=O)CN2CCN(C)CC2)cc1)c1ccccc1 [BIBF 1120]
4,4.19,Nc1cc(C(F)(F)F)c(-c2cc(N3CCOCC3)nc(N3CCOCC3)n2)cn1 [BKM-120]
5,0.553,O=C(/C=C/c1cccc(S(=O)(=O)Nc2ccccc2)c1)NO [Belinostat]
6,1.01,CCc1c2c(nc3ccc(OC(=O)N4CCC(N5CCCCC5)CC4)cc13)-c1cc3c(c(=O)n1C2)COC(=O)[C@]3(O)CC [Irinotecan]
7,> 10,Cc1ccc(NC(=O)c2ccc(CN3CCN(C)CC3)cc2)cc1Nc1nc(-c2cccnc2)cs1 [Masitinib]
8,0.54,c1ccc2c(CCNc3ccc(Nc4ccncc4)cc3)c[nH]c2c1 [Serdemetan]
9,2.2,CN(C)CCOc1ccc(/C(=C(/CCCl)c2ccccc2)c2ccccc2)cc1 [Toremifene]
10,2.74,CC(C)C[C@@H](C(=O)N[C@H](C(=O)OC1CCCC1)c1ccccc1)[C@H](O)C(=O)NO [Tosedostat]
11,0.138,COc1cc2/c(=N/c3ccc(Br)cc3F)nc[nH]c2cc1OCC1CCN(C)CC1 [Vandetanib]

# System: CAL-120
# Test: not given
# Settings: 72 h
# In short: as §1
row,Structure (SMILES),"EC50, CellTiter-Blue viability [µM]"
1,Cc1cc(Nc2cc(CN3CCOCC3)c3nc(C)c(Cc4ccc(Cl)cc4F)n3n2)n[nH]1,0.877
2,COc1cc(OC2CCN(C)CC2)ccc1Nc1ncc2c(n1)n(C1CCCC1)c(=O)n2C [AZ 3146],> 10
3,COC(=O)c1ccc2c(c1)NC(=O)/C2=C(\Nc1ccc(N(C)C(=O)CN2CCN(C)CC2)cc1)c1ccccc1 [BIBF 1120],3.64
4,Nc1cc(C(F)(F)F)c(-c2cc(N3CCOCC3)nc(N3CCOCC3)n2)cn1 [BKM-120],0.887
5,O=C(/C=C/c1cccc(S(=O)(=O)Nc2ccccc2)c1)NO [Belinostat],0.204
6,COc1cc2ncnc(Nc3ccc(F)c(Cl)c3)c2cc1OCCCN1CCOCC1 [Gefitinib],> 10
7,O=C(Nc1ccncc1)C(=O)c1cn(Cc2ccc(Cl)cc2)c2ccccc12 [Indibulin],0.0224
8,NC(=O)c1ccc(I)c([N+](=O)[O-])c1 [Iniparib],3.29
9,CCc1c2c(nc3ccc(OC(=O)N4CCC(N5CCCCC5)CC4)cc13)-c1cc3c(c(=O)n1C2)COC(=O)[C@]3(O)CC [Irinotecan],1.11
10,CNC(=O)c1cc(Oc2ccc(NC(=O)Nc3ccc(Cl)c(C(F)(F)F)c3)c(F)c2)ccn1 [Regorafenib],9.38
11,CC(C)C[C@@H](C(=O)N[C@H](C(=O)OC1CCCC1)c1ccccc1)[C@H](O)C(=O)NO [Tosedostat],0.0167
12,COc1cc2/c(=N/c3ccc(Br)cc3F)nc[nH]c2cc1OCC1CCN(C)CC1 [Vandetanib],5.26

# System: BT-549
# Test: not given
# Settings: 72 h
# In short: as §1
row,"EC50, CellTiter-Blue viability [µM]",Structure (SMILES)
1,2.37,Cc1cc(Nc2cc(CN3CCOCC3)c3nc(C)c(Cc4ccc(Cl)cc4F)n3n2)n[nH]1
2,5.19,N#Cc1ccc(COC[C@H]2O[C@@H](n3c(NCc4ccc(Cl)c(Cl)c4)nc4c(N)ncnc43)[C@H](O)[C@@H]2O)cc1
3,5.43,COC(=O)c1ccc2c(c1)NC(=O)/C2=C(\Nc1ccc(N(C)C(=O)CN2CCN(C)CC2)cc1)c1ccccc1 [BIBF 1120]
4,1.57,Nc1cc(C(F)(F)F)c(-c2cc(N3CCOCC3)nc(N3CCOCC3)n2)cn1 [BKM-120]
5,1.89,O=C(/C=C/c1cccc(S(=O)(=O)Nc2ccccc2)c1)NO [Belinostat]
6,4.11,CCc1c2c(nc3ccc(OC(=O)N4CCC(N5CCCCC5)CC4)cc13)-c1cc3c(c(=O)n1C2)COC(=O)[C@]3(O)CC [Irinotecan]
7,1.55,O=C(Nc1cccnc1)N1CCC(Cc2cccc(Oc3ccc(C(F)(F)F)cn3)c2)CC1 [PF-3845]
8,7.21,CNC(=O)c1cc(Oc2ccc(NC(=O)Nc3ccc(Cl)c(C(F)(F)F)c3)c(F)c2)ccn1 [Regorafenib]
9,1.56,c1ccc2c(CCNc3ccc(Nc4ccncc4)cc3)c[nH]c2c1 [Serdemetan]
10,0.273,CC(C)C[C@@H](C(=O)N[C@H](C(=O)OC1CCCC1)c1ccccc1)[C@H](O)C(=O)NO [Tosedostat]
11,3.75,COc1cc2/c(=N/c3ccc(Br)cc3F)nc[nH]c2cc1OCC1CCN(C)CC1 [Vandetanib]

row,Structure (SMILES),"EC50, CellTiter-Blue viability [µM]"
1,O=C(Nc1ccncc1)C(=O)c1cn(Cc2ccc(Cl)cc2)c2ccccc12 [Indibulin],0.135

# System: HCC1599
# Test: normalised response (% of control), CellTiter-Glo; higher = more viable cells (100 = DMSO, 0 = benzethonium chloride kill control)
# Settings: incubation time: 72 h
# In short: (§2)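 The table gives the normalised signal for a single concentration in each entry. Breast cancer cell lines were seeded (20 µl suspension) into 384-well plates holding compound at 5 concentrations in 10-fold steps over a compound-specific 10,000-fold range and incubated 72 h, then read for CellTox Green fluorescence (485/520 nm) and CellTiter-Glo luminescence. Normalisation on each plate used 0.1 % DMSO (100) and a positive kill control (0).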
row,Structure (SMILES),normalised response [%]
1,O=C(Nc1cccnc1)N1CCC(Cc2cccc(Oc3ccc(C(F)(F)F)cn3)c2)CC1 [PF-3845] (10000 nM),46.2
2,Cc1[nH]c2ccccc2c1CCNCc1ccc(/C=C/C(=O)NO)cc1 [Panobinostat] (1000 nM),6.35
3,COCC1(CO)C(=O)C2CCN1CC2 (stereo unspecified) [Prima-1 Met] (10000 nM),108
4,CNC(=O)c1cc(Oc2ccc(NC(=O)Nc3ccc(Cl)c(C(F)(F)F)c3)c(F)c2)ccn1 [Regorafenib] (10000 nM),36.5
5,c1ccc2c(CCNc3ccc(Nc4ccncc4)cc3)c[nH]c2c1 [Serdemetan] (10000 nM),14.4
6,CN(C)CCOc1ccc(/C(=C(/CCCl)c2ccccc2)c2ccccc2)cc1 [Toremifene] (10000 nM),77.9
7,CC(C)C[C@@H](C(=O)N[C@H](C(=O)OC1CCCC1)c1ccccc1)[C@H](O)C(=O)NO [Tosedostat] (10000 nM),89
8,COCC[n+]1c2c(n(Cc3cnccn3)c1C)C(=O)c1ccccc1C2=O [YM155] (10000 nM),-0.77

# System: CAL-148
# Test: as above
# Settings: incubation time: 72 h
# In short: as §2
row,Structure (SMILES),normalised response [%]
1,O=C(Nc1cccnc1)N1CCC(Cc2cccc(Oc3ccc(C(F)(F)F)cn3)c2)CC1 [PF-3845] (10000 nM),88.4
2,Cc1[nH]c2ccccc2c1CCNCc1ccc(/C=C/C(=O)NO)cc1 [Panobinostat] (1000 nM),0.3
3,COCC1(CO)C(=O)C2CCN1CC2 (stereo unspecified) [Prima-1 Met] (10000 nM),110
4,CNC(=O)c1cc(Oc2ccc(NC(=O)Nc3ccc(Cl)c(C(F)(F)F)c3)c(F)c2)ccn1 [Regorafenib] (10000 nM),66.7
5,c1ccc2c(CCNc3ccc(Nc4ccncc4)cc3)c[nH]c2c1 [Serdemetan] (10000 nM),21.3
6,CN(C)CCOc1ccc(/C(=C(/CCCl)c2ccccc2)c2ccccc2)cc1 [Toremifene] (10000 nM),86.7
7,CC(C)C[C@@H](C(=O)N[C@H](C(=O)OC1CCCC1)c1ccccc1)[C@H](O)C(=O)NO [Tosedostat] (10000 nM),67.1
8,COCC[n+]1c2c(n(Cc3cnccn3)c1C)C(=O)c1ccccc1C2=O [YM155] (10000 nM),-0.38

# System: MDA-MB-231
# Test: as above
# Settings: incubation time: 72 h
# In short: as §2
row,Structure (SMILES),normalised response [%]
1,O=C(Nc1cccnc1)N1CCC(Cc2cccc(Oc3ccc(C(F)(F)F)cn3)c2)CC1 [PF-3845] (10000 nM),89.1
2,Cc1[nH]c2ccccc2c1CCNCc1ccc(/C=C/C(=O)NO)cc1 [Panobinostat] (1000 nM),6.11
3,COCC1(CO)C(=O)C2CCN1CC2 (stereo unspecified) [Prima-1 Met] (10000 nM),97.6
4,CNC(=O)c1cc(Oc2ccc(NC(=O)Nc3ccc(Cl)c(C(F)(F)F)c3)c(F)c2)ccn1 [Regorafenib] (10000 nM),61.2
5,c1ccc2c(CCNc3ccc(Nc4ccncc4)cc3)c[nH]c2c1 [Serdemetan] (10000 nM),41
6,CN(C)CCOc1ccc(/C(=C(/CCCl)c2ccccc2)c2ccccc2)cc1 [Toremifene] (10000 nM),65.9
7,CC(C)C[C@@H](C(=O)N[C@H](C(=O)OC1CCCC1)c1ccccc1)[C@H](O)C(=O)NO [Tosedostat] (10000 nM),35.7
8,COCC[n+]1c2c(n(Cc3cnccn3)c1C)C(=O)c1ccccc1C2=O [YM155] (10000 nM),-0.19

# System: CAL-51
# Test: as above
# Settings: incubation time: 72 h
# In short: as §2
row,Structure (SMILES),normalised response [%]
1,O=C(Nc1cccnc1)N1CCC(Cc2cccc(Oc3ccc(C(F)(F)F)cn3)c2)CC1 [PF-3845] (10000 nM),44.6
2,Cc1[nH]c2ccccc2c1CCNCc1ccc(/C=C/C(=O)NO)cc1 [Panobinostat] (1000 nM),8.29
3,COCC1(CO)C(=O)C2CCN1CC2 (stereo unspecified) [Prima-1 Met] (10000 nM),130
4,CNC(=O)c1cc(Oc2ccc(NC(=O)Nc3ccc(Cl)c(C(F)(F)F)c3)c(F)c2)ccn1 [Regorafenib] (10000 nM),73.8
